Test results reported in BigSolDB 2.1.

Cc1cc(C#N)c(Nc2ccccc2[N+](=O)[O-])s1
Settings | solubility (mole fraction)
in DMSO, 292.15 K | 0.0519
in DMSO, 297.15 K | 0.0588
in DMSO, 301.15 K | 0.0671
in DMSO, 306.15 K | 0.0734
in DMSO, 310.15 K | 0.0801
in DMSO, 316.15 K | 0.0913
in DMSO, 320.15 K | 0.101
in DMSO, 325.15 K | 0.112
in DMSO, 328.15 K | 0.123
in DMSO, 332.15 K | 0.135
in acetic acid, 293.15 K | 0.00487
in acetic acid, 297.15 K | 0.00588
in acetic acid, 302.15 K | 0.00725
in acetic acid, 307.15 K | 0.00881
in acetic acid, 311.15 K | 0.0109
in acetic acid, 316.15 K | 0.0127
in acetic acid, 320.15 K | 0.0159
in acetic acid, 325.15 K | 0.0202
in acetic acid, 329.15 K | 0.0248
in acetic acid, 333.15 K | 0.0306
in acetone, 292.15 K | 0.0262
in acetone, 296.15 K | 0.0322
in acetone, 302.15 K | 0.0377
in acetone, 305.15 K | 0.0444
in acetone, 311.15 K | 0.0513
in acetone, 316.15 K | 0.0604
in ethanol, 292.15 K | 0.00106
in ethanol, 296.15 K | 0.00131
in ethanol, 302.15 K | 0.00163
in ethanol, 306.15 K | 0.00214
in ethanol, 311.15 K | 0.00274
in ethanol, 315.15 K | 0.00345
in ethanol, 320.15 K | 0.00427
in ethanol, 325.15 K | 0.00528
in ethanol, 329.15 K | 0.00638
in ethanol, 334.15 K | 0.00766
in ethyl acetate, 293.15 K | 0.0199
in ethyl acetate, 296.15 K | 0.0227
in ethyl acetate, 302.15 K | 0.0255
in ethyl acetate, 306.15 K | 0.0315
in ethyl acetate, 311.15 K | 0.0379
in ethyl acetate, 315.15 K | 0.0442
in ethyl acetate, 320.15 K | 0.0494
in ethyl acetate, 324.15 K | 0.0591
in ethyl acetate, 329.15 K | 0.0713
in ethyl acetate, 333.15 K | 0.0858
in methanol, 292.15 K | 0.00109
in methanol, 297.15 K | 0.00145
in methanol, 302.15 K | 0.00186
in methanol, 306.15 K | 0.00233
in methanol, 311.15 K | 0.00291
in methanol, 315.15 K | 0.00368
in methanol, 320.15 K | 0.00464
in methanol, 324.15 K | 0.00575
